Experimental data as given in US8551921B2, “Method for determining the toxicity of an environmental or chemical sample” (priority 2000, dated 2013).
Several values for one entry are separate records, joined by “and”; a condition that tells them apart may be missing. Equal values may be shown once. Where a name gives a salt, the structure may show the parent alone. Read-outs that look alike come from different tables or passages of the source.

Tests used:
[1] = system: 11 different microbial strains; details: for Toxic fingerprint: MTC value, Mean: mean of all 11 MTC values
Method: (§1) • dispense 150 μl of growth medium with indicator in each well • add a concentration gradient of the chemical to be tested to rows B-H in a MARA plate (i.e. an indicator device according to the present invention) • incubate for 16 h • read absorbance values; and • analyse with software.
(§2) Microbial responses to different chemicals was estimated by kinetic measurements of their growth using the Labsystem automated IEMS reader. A computer software that could monitor incubation temperatures, reading intervals, and automatically transfer OD data to a computer was developed. A growth medium containing 0.05% peptone, 0.011% bromothymol blue (BTB), 1% sodium chloride and 0.3% glucose was added to all wells. The glucose acts as a carbon source, and during growth the microorganism will break down the glucose and produce acids, that will turn the initially blue indicator to yellow. Each microplate contains 12 columns and 8 rows, and thus in each plate, 11 lyophilized microbial strains were used (one for each column, the 12th column was used as negative control). […] In order to avoid drying out of the plates during the incubation, one drop of sterile mineral oil was added to each well. The plate was then incubated in the IEMS spectrophotometer and the absorbance value from each well was measured every second hour during 48 h.
(§3) The overall toxicity of the chemical compound can be described either as the mean of all 11 MTC values (shown in column 12), or as the minimum value for all 11 microbial strains used in the assay (marked with bold in the table).
Concentrations are given in mg/ml.

[2] = system: Staphylococcus epidermidis (Karin12); assay: MARA indicator device toxic fingerprint, microorganism no. 11; details: Microbial Toxic Concentration; incubation time 16 h
Method: as §1, §2, §3

[3] = system: E. coli MZ 480; assay: MARA indicator device toxic fingerprint, microorganism no. 8; details: Microbial Toxic Concentration, incubation time 16 h
Method: as §1, §2, §3

[4] = system: Saccaromyces ceriviciae (bakers yeast); details: Microbial Toxic Concentration; incubation time 16 h
Method: as §1, §2, §3

[5] = system: JG2 (strain of marine origin); details: Microbial Toxic Concentration; incubation time 16 h
Method: as §1, §2, §3

[6] = system: ObanF; details: Microbial Toxic Concentration; incubation time 16 h
Method: as §1, §2, §3

[7] = system: Aeromonas hydriphila HG3 (RV 5.1); details: Microbial Toxic Concentration; incubation time 16 h
Method: as §1, §2, §3

[8] = system: JG1 (strain of marine origin); details: Microbial Toxic Concentration, incubation time 16 h
Method: as §1, §2, §3

[9] = system: JG4 (strain of marine origin); details: Microbial Toxic Concentration; incubation time 16 h
Method: as §1, §2, §3

[10] = system: JG3 (strain of marine origin); assay: MARA indicator device toxic fingerprint, microorganism no. 3; details: Microbial Toxic Concentration; incubation time 16 h
Method: as §1, §2, §3

[11] = system: β-proteobacterium A22 (Kalmar 200); assay: MARA indicator device toxic fingerprint, microorganism no. 5; details: Microbial Toxic Concentration; incubation time 16 h
Method: as §1, §2, §3

[12] = system: Daphnia; details: IC50-values, established assay; cited from earlier work
[13] = system: E. coli; details: IC50-values, established assay; cited from earlier work
[14] = system: Photobacterium phosphoreum; details: IC50-values, established assay; cited from earlier work
[15] = system: microorganism no. 7; assay: MARA indicator device toxic fingerprint, microorganism no. 7; details: Microbial Toxic Concentration; incubation time 16 h
Method: as §1, §2, §3

[16] = MTC value of the strain showing the highest sensitivity
[17] = mean MTC for the 11 microbial strains
[18] = 11 microbial strains (panel, species not named)

| SMILES | Toxic fingerprint: MTC value, Mean [1] | Toxic fingerprint: MTC value for microorganism no. 11 [2] | Toxic fingerprint: MTC value for microorganism no. 8 [3] | Toxic fingerprint: MTC value for microorganism no. 10 [4] | Toxic fingerprint: MTC value for microorganism no. 2 [5] | Toxic fingerprint: MTC value for microorganism no. 9 [6] | Toxic fingerprint: MTC value for microorganism no. 6 [7] | Toxic fingerprint: MTC value for microorganism no. 1 [8] | Toxic fingerprint: MTC value for microorganism no. 4 [9] | Toxic fingerprint: MTC value for microorganism no. 3 [10] | Toxic fingerprint: MTC value for microorganism no. 5 [11] | Inhibitory concentrations by method: Daphnia [12] [mg/mL] | Inhibitory concentrations by method: Microtox [14] [mg/mL] | Toxic fingerprint: MTC value for microorganism no. 7 [15] | other results |
| --- | --- | --- | --- | --- | --- | --- | --- | --- | --- | --- | --- | --- | --- | --- | --- |
| C=CC(N)=O [Acryl amide] | 4.700 and 4.690 | 8.300 and 10.300 | 17.700 and 23.300 | 6.620 and 6.970 | 2.440 and 1.810 | 13.900 and 11.000 | 2.480 and 2.810 | 0.965 and 0.853 | 2.100 and 2.510 | 4.280 and 3.370 | 5.740 and 3.240 |  |  |  | Toxic fingerprint: MTC value for microorganism no. 8 ([3]; listed as acrylamid): 20; Toxic fingerprint: MTC value for microorganism no. 1 ([8]; listed as acrylamid): 0.9 |
| CN1[C@@H]2CC[C@H]1CC(OC(=O)C(CO)c1ccccc1)C2.CN1[C@@H]2CC[C@H]1CC(OC(=O)C(CO)c1ccccc1)C2.O=S(=O)(O)O (stereo partly drawn) [Atropin Sulphate] |  |  |  |  |  |  |  |  |  |  |  | 0.347 |  |  | Inhibitory concentrations by method: E. coli [13]: 56.294 mg/mL |
| O=[N+]([O-])[O-].O=[N+]([O-])[O-].[Ba+2] [Barium nitrate] | 1.420 | 0.466 | 1.360 | 0.453 | 0.205 | 1.490 | 0.713 | 2.520 | 5.620 | 0.908 | 1.090 | 0.208 | 29.318 | 1.110 | Inhibitory concentrations by method: MARA MTCmin [1, 16]: 0.453 mg/mL; Inhibitory concentrations by method: MARA MTCmean [1, 17]: 1.420 mg/mL; mean toxicity levels (MTC values) ([1]; text to FIG. 7): 1.4 mg/L |
| C[C@H]1O[C@@H](O[C@H]2[C@@H](O)C[C@H](O[C@H]3[C@@H](O)C[C@H](O[C@H]4CC[C@@]5(C)[C@H](CC[C@@H]6[C@@H]5C[C@@H](O)[C@]5(C)[C@@H](C7=CC(=O)OC7)CC[C@]65O)C4)O[C@@H]3C)O[C@@H]2C)C[C@H](O)[C@@H]1O [Digoxin] | 0.8 and 0.770 | 0.104 | 0.310 | 2.510 | 0.937 | 0.201 | 0.531 | 1.040 | 0.942 | 0.481 | 0.927 | 0.192 | 1.129 | 0.921 | Inhibitory concentrations by method: MARA MTCmin [1, 16]: 0.104 mg/mL; Inhibitory concentrations by method: MARA MTCmean [1, 17]: 0.770 mg/mL |
| OCCO [Ethylene Glycol] |  |  |  |  |  |  |  |  |  |  |  | 74.625 | 167.064 |  | Inhibitory concentrations by method: MARA MTCmin [1]: 11.775 mg/mL; Inhibitory concentrations by method: MARA MTCmean [1, 18]: 28.400 mg/mL; Inhibitory concentrations by method: E. coli [13]: 270.945 mg/mL |
| [Cl-].[Cl-].[Mg+2] [Magnesium Chloride] | 13.900 | 4.580 | 24.100 | 22.700 | 9.660 | 8.830 | 13.500 | 28.800 | 7.500 | 7.420 | 14.800 |  |  | 12.100 |  |
| Cc1ccccc1C(OCCN(C)C)c1ccccc1 (stereo not drawn) [Orphenadrin HCl] |  |  |  |  |  |  |  |  |  |  |  |  |  |  | Toxic fingerprint: MTC value, Mean ([1]; HCl): 0.131 and 0.146 |
| Oc1ccccc1 [Phenol] |  |  |  |  |  |  |  |  |  |  |  | 0.007 | 0.133 |  | Inhibitory concentrations by method: MARA MTCmin [1]: 0.412 mg/mL; Inhibitory concentrations by method: MARA MTCmean [1, 18]: 0.831 mg/mL; Inhibitory concentrations by method: E. coli [13]: 2.258 mg/mL |
| [Cl-].[K+] [Potassium Chloride] | 29.800 | 31.300 | 62.300 | 16.000 | 29.400 | 65.400 | 27.100 | 28.200 | 17.000 | 10.600 | 20.100 |  |  | 67.300 |  |
| [N-]=[N+]=[N-] [Sodium Azide] | 0.111 | 0.146 | 0.592 | 0.106 | 0.045 | 2.000 | 0.082 | 0.025 | 0.088 | 0.056 | 0.054 |  |  | 0.126 |  |
| CSc1ccc2c(c1)N(CCC1CCCCN1C)c1ccccc1S2 (stereo not drawn) [Tioridazin HCl] | 0.028 | 0.006 | 0.006 | 0.014 | 0.017 |  | 0.027 |  |  |  | 0.029 |  |  | 0.042 | Inhibitory concentrations by method: MARA MTCmin [1, 16]: 0.006 mg/mL; Inhibitory concentrations by method: MARA MTCmean [1, 17]: 0.028 mg/mL |
